Assay results reported in ChEMBL document CHEMBL1148064, “Nepheliosyne A, new C47 acetylenic acid from the Okinawan marine sponge Xestospongia sp” (1994).

Experiments:
[1] = system: KB; test: Cytotoxicity against human KB cells at 20 ug/cm'3; format: functional
[2] = system: L1210; test: Cytotoxicity against mouse L1210 cells at 20 ug/cm'3; format: functional

C#CC(O)/C=C/C(O)C/C=C/CC(O)C#CC(O)C#CC(O)CCC/C=C\CCCCCCCCC(O)C(=O)CCCCCCCCCC(O)CC(O)C#CC(=O)O (configuration not stated) [NEPHELIOSYNE A]
Activity [1]: 14% | Activity [2]: 40%
